Experimental data taken from patent publication US12410207B2, “Galactoside inhibitor of galectins” (GALECTO BIOTECH AB, priority 2019, dated 2025).

Columns and labels:
Galectin-1 = Galectin-1 (Homo sapiens, UniProt P09382); assay: Fluorescence anisotropy assay, inhibition of galectin / fluorescein tagged saccharide probe interaction; settings: compound as inhibitor of probe binding
Procedure: (§1) The affinity of Example 1-45 for galectins were determined by a fluorescence anisotropy assay where the compound was used as an inhibitor of the interaction between galectin and a fluorescein tagged saccharide probe as described Sörme, P., Kahl-Knutsson, B., Huflejt, M., Nilsson, U. J., and Leffler H. (2004) Fluorescence polarization as an analytical tool to evaluate galectin-ligand interactions. Anal. Biochem. 334: 36-47, (Sorme et al., 2004) and Monovalent interactions of Galectin-1 By Salomonsson, Emma; Larumbe, Amaia; Tejler, Johan; Tullberg, Erik; Rydberg, Hanna; Sundin, Anders; Khabut, Areej; Frejd, Torbjorn; Lobsanov, Yuri D.; Rini, James M.; et al, From Biochemistry (2010), 49(44), 9518-9532, (Salomonsson et al., 2010).

Galectin-3 = Galectin-3 (Homo sapiens, UniProt P17931); assay: as above; settings: compound as inhibitor of probe binding
Procedure: as §1

Chain of Galectin-1 (P09382 whole entry, species assumed): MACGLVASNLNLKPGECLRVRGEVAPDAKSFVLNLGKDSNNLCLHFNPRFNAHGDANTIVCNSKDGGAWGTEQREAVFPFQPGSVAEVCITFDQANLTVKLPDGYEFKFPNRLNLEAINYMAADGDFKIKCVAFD
Chain of Galectin-3 (P17931 whole entry, species assumed): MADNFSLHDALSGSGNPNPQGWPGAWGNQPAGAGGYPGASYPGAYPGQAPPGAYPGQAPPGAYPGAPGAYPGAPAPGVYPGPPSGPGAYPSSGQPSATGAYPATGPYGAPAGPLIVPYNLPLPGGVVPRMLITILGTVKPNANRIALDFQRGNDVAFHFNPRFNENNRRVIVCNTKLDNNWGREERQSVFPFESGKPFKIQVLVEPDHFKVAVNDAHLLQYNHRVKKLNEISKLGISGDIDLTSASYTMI

Row | Compound | Kd (Galectin-1) | Kd (Galectin-3)
1 | C#Cc1cnc(C#N)c(S[C@H]2OC(CO)[C@H](O)C(n3cc(-c4cc(F)c(F)c(F)c4)cn3)C2O)c1 (stereo partly drawn) [Example 16, 2-Cyano-5-ethynylpyridin-3-yl 3-deoxy-3-[4-(3,4,5-trifluorophenyl)-1H-1,2-pyrazol-1-yl]-1-thio-α-D-galactopyranoside] | 12700 nM | 21 nM
2 | OCC1O[C@H](Sc2cncc(Cl)c2)C(O)C(n2cc(-c3cccc(F)n3)cn2)[C@H]1O (stereo partly drawn) [Example 18, 5-Chloropyridin-3-yl 3-deoxy-3-[4-(6-fluoropyridin-2-yl)-1H-1,2-pyrazol-1-yl]-1-thio-α-D-galactopyranoside] | 12300 nM | 690 nM
3 | N#Cc1ncc(Cl)cc1S[C@H]1OC(CO)[C@H](O)C(n2cc(-c3cc(F)c(Cl)c(F)c3)cn2)C1O (stereo partly drawn) [Example 13, 5-Chloro-2-cyanopyridin-3-yl 3-[4-(4-chloro-3,5-difluorophenyl)-1H-1,2-pyrazol-1-yl]-3-deoxy-1-thio-α-D-galactopyranoside] | 34000 nM | 14 nM
4 | OCC1O[C@H](Sc2cncc(Br)c2)C(O)C(n2cc(-c3cc(F)c(F)c(F)c3)cn2)[C@H]1O (stereo partly drawn) [Example 5, 5-Bromopyridin-3-yl 3-deoxy-3-[4-(3,4,5-trifluorophenyl)-1H-1,2-pyrazol-1-yl]-1-thio-α-D-galactopyranoside] | 14800 nM | 25 nM
5 | COC1C(n2ccc(-c3cc(F)c(F)c(F)c3)n2)[C@@H](O)C(CO)O[C@@H]1Sc1cncc(Cl)c1 (stereo partly drawn) [Example 38, 5-Chloropyridin-3-yl 3-deoxy-3-[3-(3,4,5-trifluorophenyl)-1H-1,2-pyrazol-1-yl]-2-O-methyl-1-thio-α-D-galactopyranoside] | 51000 nM | 450 nM
6 | COC1C(n2cc(-c3cc(F)c(Cl)c(F)c3)cn2)[C@@H](O)C(CO)O[C@@H]1Sc1cc(Cl)ccc1C#N (stereo partly drawn) [Example 44, 5-Chloro-2-cyanophenyl 3-[4-(4-chloro-3,5-difluorophenyl)-1H-1,2-pyrazol-1-yl]-3-deoxy-2-O-methyl-1-thio-α-D-galactopyranoside] | 50000 nM | 40 nM
7 | Cn1ccc(-c2cnn(C3C(O)[C@@H](Sc4cncc(Cl)c4)OC(CO)[C@@H]3O)c2)n1 (stereo partly drawn) [Example 22, 5-Chloropyridin-3-yl 3-deoxy-3-[4-(1-methyl-1,2-pyrazol-3-yl)-1H-1,2-pyrazol-1-yl]-1-thio-α-D-galactopyranoside] | 14700 nM | 9600 nM
8 | O=C(c1ccc(Cl)cc1S[C@H]1OC(CO)[C@H](O)C(n2cc(-c3cc(F)c(Cl)c(F)c3)cn2)C1O)N1CCC1 (stereo partly drawn) [Example 9, 2-(N-azetidinyl-carbonyl)-5-chlorophenyl 3-[4-(4-chloro-3,5-difluorophenyl)-1H-1,2-pyrazol-1-yl]-3-deoxy-1-thio-α-D-galactopyranoside] | 19200 nM | 12 nM
9 | Cc1cnc(C#N)c(S[C@H]2OC(CO)[C@H](O)C(n3cc(-c4cc(F)c(F)c(F)c4)cn3)C2O)c1 (some centres unmarked) [Example 14] | 51000 nM | 80 nM
10 | OC[C@H]1O[C@H](Sc2ccc(Cl)c(Cl)c2)[C@H](O)[C@@H](c2nnc(-c3cc(F)c(F)c(F)c3)o2)[C@H]1O [Example 41, 3,4-Dichlorophenyl 3-deoxy-3-[5-(3,4,5-trifluorophenyl)-1,3,4-oxadiazol-2-yl]-1-thio-α-D-galactopyranoside] | > 100000 nM | 1200 nM

Stronger by Kd (Galectin-1), values ahead:

Row | Kd (Galectin-1) | Kd (Galectin-3) | Compound
11 | 6800 nM | 15 nM | O=C(c1ccc(Cl)cc1S[C@H]1OC(CO)[C@H](O)C(n2cc(-c3cc(F)c(F)c(F)c3)cn2)C1O)N1CCC1 (stereo partly drawn) [Example 10, 2-(N-azetidinyl-carbonyl)-5-chlorophenyl 3-deoxy-3-[4-(3,4,5-trifluorophenyl)-1H-1,2-pyrazol-1-yl]-1-thio-α-D-galactopyranoside]
12 | 590 nM | 1500 nM | OCC1O[C@H](Sc2cncc(Cl)c2)C(O)C(n2cc(-c3nc(Cl)cs3)cn2)[C@H]1O (stereo partly drawn) [Example 27, 5-Chloropyridin-3-yl 3-[4-(4-chlorothiazol-2-yl)-1H-1,2-pyrazol-1-yl]-3-deoxy-1-thio-α-D-galactopyranoside]
13 | 8900 nM | 12700 nM | OCC1O[C@H](Sc2cncc(Cl)c2)C(O)C(n2cc(-c3cc[nH]n3)cn2)[C@H]1O (stereo partly drawn) [Example 21, 5-Chloropyridin-3-yl 3-deoxy-3-[4-(1H-1,2-pyrazol-3-yl)-1H-1,2-pyrazol-1-yl]-1-thio-α-D-galactopyranoside]
14 | 140 nM | 3400 nM | OCC1O[C@H](Sc2cncc(Cl)c2)C(O)C(n2cc(-c3csc(O)n3)cn2)[C@H]1O (stereo partly drawn) [Example 31, 5-Chloropyridin-3-yl 3-deoxy-3-[4-(2-hydroxythiazol-4-yl)-1H-1,2-pyrazol-1-yl]-1-thio-α-D-galactopyranoside]
15 | 10200 nM | 630 nM | OCC1O[C@H](Sc2cncc(Cl)c2)C(O)C(n2cc(-c3cc(F)ccn3)cn2)[C@H]1O (stereo partly drawn) [Example 20, 5-Chloropyridin-3-yl 3-deoxy-3-[4-(4-fluoropyridin-2-yl)-1H-1,2-pyrazol-1-yl]-1-thio-α-D-galactopyranoside]
16 | 180 nM | 63000 nM | COC1C(n2cc(-c3csc(O)n3)cn2)[C@@H](O)C(CO)O[C@@H]1Sc1ccc(Cl)c(Cl)c1 (stereo partly drawn) [Example 42, 3,4-Dichlorophenyl 3-deoxy-3-[4-(2-hydroxythiazol-4-yl)-1H-1,2-pyrazol-1-yl]-2-O-methyl-1-thio-α-D-galactopyranoside]
17 | 8500 nM | 30 nM | COC1C(n2cc(-c3cc(F)c(F)c(F)c3)cn2)[C@@H](O)C(CO)O[C@@H]1Sc1cc(Cl)ccc1C#N (stereo partly drawn) [Example 45, 5-Chloro-2-cyanophenyl 3-deoxy-3-[4-(3,4,5-trifluorophenyl)-1H-1,2-pyrazol-1-yl]-2-O-methyl-1-thio-α-D-galactopyranoside]
18 | 2300 nM | 9900 nM | OCC1O[C@H](Sc2cncc(Cl)c2)C(O)C(n2cc(-c3nccs3)cn2)[C@H]1O (stereo partly drawn) [Example 26, 5-Chloropyridin-3-yl 3-deoxy-3-[4-(thiazol-2-yl)-1H-1,2-pyrazol-1-yl]-1-thio-α-D-galactopyranoside]
19 | 5100 nM | 13 nM | OCC1O[C@H](Sc2cc(Cl)cnc2N2CC(CO)(CO)C2)C(O)C(n2cc(-c3cc(F)c(F)c(F)c3)cn2)[C@H]1O (stereo partly drawn) [Example 37, 5-Chloro-[3,3-bis(hydroxymethyl)azetidin-1-yl]pyridin-3-yl 3-deoxy-3-[4-(3,4,5-trifluorophenyl)-1H-1,2-pyrazol-1-yl]-1-thio-α-D-galactopyranoside]
20 | 520 nM | 1200 nM | OCC1O[C@H](Sc2cncc(Br)c2)C(O)C(n2cc(-c3nc(Cl)cs3)cn2)[C@H]1O (stereo partly drawn) [Example 28, 5-Bromopyridin-3-yl 3-[4-(4-chlorothiazol-2-yl)-1H-1,2-pyrazol-1-yl]-3-deoxy-1-thio-α-D-galactopyranoside]
21 | 4100 nM | 1600 nM | OCC1O[C@H](Sc2cncc(Cl)c2)C(O)C(n2cc(-c3ccc(F)cn3)cn2)[C@H]1O (stereo partly drawn) [Example 19, 5-Chloropyridin-3-yl 3-deoxy-3-[4-(5-fluoropyridin-2-yl)-1H-1,2-pyrazol-1-yl]-1-thio-α-D-galactopyranoside]
22 | 490 nM | 1500 nM | N#Cc1ccc(Cl)cc1S[C@H]1OC(CO)[C@H](O)C(n2cc(-c3nc(Cl)cs3)cn2)C1O (stereo partly drawn) [Example 29, 5-Chloro-2-cyanophenyl 3-[4-(4-chlorothiazol-2-yl)-1H-1,2-pyrazol-1-yl]-3-deoxy-1-thio-α-D-galactopyranoside]
